# Results published in patent US20060194800A1, “Pteridine derivatives as nitric oxide synthase activators” (University of Strathclyde, priority 2005, published 2006).
# “Also recorded” adds a separate entry of the source.
# How the values were obtained:
# rat aorta [1] = test: Rat aorta ring relaxation (endogenous tetrahydrobiopterin present); details: normal rings, phenylephrine-contracted
# Protocol: Rings (5 mm long) of rat pulmonary artery and aorta, were supported on a pair of intraluminal wires at 1 gm tension for one hour and then contracted with their EC50 phenylephrine concentration, which for pulmonary artery was 3.6×10^−8 M (derived from preliminary experiments) and for aorta was 11.8×10^−8 M (from the previously published literature). The rings were then relaxed with carbachol (10 μM). If the relaxation to carbachol was >75%, then the tissues were used to generate dose responses by addition of tetrahydrobiopterin (BH4) or the analogues. Stock BH4 was stored at −20° C. and the dilutions were prepared using saline just before adding the drug into the bath. Solutions of analogues were stored at 4° C. Cumulatively increasing concentrations of the analogues were added to the bath and the extent of relaxation was measured when it had stabilised. Another ring from the same rat was treated in parallel with the solvent for the analogue. The solvent used was NH4OH. The results are shown graphically in FIGS. 1 and 2.
# rat pulmonary artery = test: BH4 depleted (DAHP) rat pulmonary artery relaxation
# Protocol: Rat pulmonary artery or aorta rings (as above) were placed in 15 ml tubes containing 2-3 ml of MEM (minimal essential medium) solution containing 0.1% bovine serum albumin, 100 U/ml penicillin and […] streptomycin. Some of the tubes in addition received diamino-hydroxy-pyrimidine (DAHP) 10^−2 M, an inhibitor of GTP cyclohydrolase, the rate-limiting step in tetrahydrobiopterin synthesis. The tubes were incubated at 37° C. for six hours. […] After the incubation with DAHP or the control incubation with the medium (MEM) alone, the rings were removed and then their relaxation in response to the analogue (or solvent NH4OH) was tested as above. Dose response curves of DAHP-treated tissues were compared to the control tissues treated in MEM alone for 6 hrs. The results are shown graphically in FIGS. 3 and 4. […] Thus WSG1002 is acting to enhance the ability of the endothelium to form NO and is not acting merely as a NO donor. The above procedures were used to mimic cardiovascular disease, by treating aorta and pulmonary artery rings with an inhibitor of the enzyme GTP cyclohydrolase, which is the rate-limiting step in the formation of tetrahydrobiopterin by cells. Treatment with this inhibitor, DAHP, for 6 hours reduced endogenous tetrahydrobiopterin levels in arteries to 4% of the normal content. […] This was found in both pulmonary artery and aorta (FIGS. 3 and 4). […] The only effect seen was a contraction—the opposite to the action of WSG1002—at the highest concentration of tetrahydrobiopterin. […] WSG1002 has an EC50 of approximately 10 nM.
# rat aorta [2] = test: BH4 depleted (DAHP) rat aorta relaxation; details: DAHP 10^-2 M for 6 h, tetrahydrobiopterin depleted
# Protocol: Rat pulmonary artery or aorta rings (as above) were placed in 15 ml tubes containing 2-3 ml of MEM (minimal essential medium) solution containing 0.1% bovine serum albumin, 100 U/ml penicillin and […] streptomycin. Some of the tubes in addition received diamino-hydroxy-pyrimidine (DAHP) 10^−2 M, an inhibitor of GTP cyclohydrolase, the rate-limiting step in tetrahydrobiopterin synthesis. The tubes were incubated at 37° C. for six hours. […] After the incubation with DAHP or the control incubation with the medium (MEM) alone, the rings were removed and then their relaxation in response to the analogue (or solvent NH4OH) was tested as above. Dose response curves of DAHP-treated tissues were compared to the control tissues treated in MEM alone for 6 hrs. The results are shown graphically in FIGS. 3 and 4. The above procedures were used to mimic cardiovascular disease, by treating aorta and pulmonary artery rings with an inhibitor of the enzyme GTP cyclohydrolase, which is the rate-limiting step in the formation of tetrahydrobiopterin by cells. Treatment with this inhibitor, DAHP, for 6 hours reduced endogenous tetrahydrobiopterin levels in arteries to 4% of the normal content. […] This was found in both pulmonary artery and aorta (FIGS. 3 and 4). […] The only effect seen was a contraction—the opposite to the action of WSG1002—at the highest concentration of tetrahydrobiopterin. […]
# iNOS = target: T1, iNOS (Mus musculus, UniProt P29477); test: Macrophage assay (iNOS), macrophages depleted of tetrahydrobiopterin by DAHP; assay type: cell-based
# T1 construct: stimulated macrophages that produce iNOS; endogenous in cells; host or cells: primary mouse macrophages (from femur), LPS-stimulated, DAHP-treated
# T1 sequence (P29477 whole entry): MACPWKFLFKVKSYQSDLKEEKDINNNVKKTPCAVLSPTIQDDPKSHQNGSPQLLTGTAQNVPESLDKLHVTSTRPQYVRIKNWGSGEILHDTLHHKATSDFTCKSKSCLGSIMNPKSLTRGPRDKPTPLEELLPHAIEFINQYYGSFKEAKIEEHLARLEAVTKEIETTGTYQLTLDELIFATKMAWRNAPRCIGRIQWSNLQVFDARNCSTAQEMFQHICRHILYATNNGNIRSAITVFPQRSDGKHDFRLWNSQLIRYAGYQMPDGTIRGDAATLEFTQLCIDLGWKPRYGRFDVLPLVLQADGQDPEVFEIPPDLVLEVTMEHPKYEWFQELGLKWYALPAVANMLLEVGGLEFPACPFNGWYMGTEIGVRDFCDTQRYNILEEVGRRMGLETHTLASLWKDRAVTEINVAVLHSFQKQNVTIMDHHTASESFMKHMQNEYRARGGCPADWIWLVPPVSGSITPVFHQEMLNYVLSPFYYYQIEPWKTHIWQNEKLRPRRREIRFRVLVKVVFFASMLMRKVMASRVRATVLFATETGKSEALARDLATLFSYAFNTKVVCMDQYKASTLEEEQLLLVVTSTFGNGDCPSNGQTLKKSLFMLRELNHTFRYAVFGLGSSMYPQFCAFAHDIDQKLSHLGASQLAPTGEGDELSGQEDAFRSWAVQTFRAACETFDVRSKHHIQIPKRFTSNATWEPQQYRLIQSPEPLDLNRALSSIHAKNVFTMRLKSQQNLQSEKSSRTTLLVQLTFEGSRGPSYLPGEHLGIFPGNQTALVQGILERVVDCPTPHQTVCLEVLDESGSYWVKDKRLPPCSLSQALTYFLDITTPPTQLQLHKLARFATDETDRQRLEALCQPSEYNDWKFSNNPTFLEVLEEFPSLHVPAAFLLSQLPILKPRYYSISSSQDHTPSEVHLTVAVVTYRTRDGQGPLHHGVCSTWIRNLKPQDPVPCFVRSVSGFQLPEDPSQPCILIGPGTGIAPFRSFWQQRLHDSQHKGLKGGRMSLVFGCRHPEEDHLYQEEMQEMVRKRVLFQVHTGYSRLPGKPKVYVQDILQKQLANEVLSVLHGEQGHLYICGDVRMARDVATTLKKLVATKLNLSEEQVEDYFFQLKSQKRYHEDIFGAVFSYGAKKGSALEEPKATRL
# Protocol: This is a cell based assay with lipopolysaccharide stimulated macrophages in which nitric oxide is produced by the action of iNOS. Primary cultures of macrophage cells isolated from mouse femur were produced over a 7 day period. At this stage the cells were seeded into 96-well culture plates at a density of 2×10^5 cells per well. After further incubation for 24 hrs, the well media was changed and the relevant treatment was introduced. The cells were then incubated for a further 72 hrs before 50 μl was removed from each well and combined with 100 μl of Greiss reagent for NO2 determination. All treatments were performed in triplicate. In each plate, 3 wells were designated control i.e. media change only-no LPS. These samples represent basal NO2 output over 72 hrs. 3 wells were used for LPS (0.5 μg/ml) stimulation alone and 3 wells were used for LPS+0.05% DMSO. This DMSO concentration was present in all subsequent analogue treated wells. All analogues were tested at 1.0 and 10 μM. In another set of experiments, the assay was repeated with the inclusion of a step to deplete endogenous tetrahydrobiopterin as in the artery ring studies. DAHP pre-treatment was employed to deplete the macrophage cells of endogenous tetrahydrobiopterin. In these experiments, DAHP (10^−2 M) was added to the cells for 24 hrs prior to seeding into 96-well plates and for 24 hrs following the seeding procedure. Thereafter, DAHP was present throughout the analogue treatment period of 72 hrs. […] Macrophages were initially depleted of tetrahydrobiopterin by incubation with DAHP.
smiles,measurement,setting,value
"CC(=O)C1=Nc2c(nc(N)[nH]c2=O)NC1(C)C [wsg1002, 6-Acetyl-2-amino-7,7-dimethyl-7,8-dihydro-3H-pteridin-4-one]",relaxation of rat aorta rings,rat aorta [1],no action; also recorded: no effect
same,relaxation of rat pulmonary artery rings,"rat pulmonary artery; DAHP 10^-2 M for 6 h, tetrahydrobiopterin depleted",significant and physiologically important vasodilatation; also recorded: substantial relaxation
same,relaxation of pulmonary artery ring in presence of L-NAME,"rat pulmonary artery; L-NAME 100 μM, same result in normal and DAHP-treated rings",no relaxation
same,EC50,"rat pulmonary artery; Rattus norvegicus, DAHP-treated artery rings, tissue not specified",~10 nM
same,relaxation of rat aorta rings,rat aorta [2],significant and physiologically important vasodilatation; also recorded: significant relaxation
same,activation at 1 µM,"iNOS; 72 h, tested at 1 microM in macrophages, P = promotes NOS activity, read-out: iNOS effect *H155",20 to 50%
same,stimulation of nitric oxide synthesis vs controls,"iNOS; DAHP 10^-2 M depleted macrophages, 72 hrs",increases were statistically significant
